Calls of active or inactive are those of the source. The calls are words filed in the database; no cut-off is given here.

We go through two compounds from ChEMBL document CHEMBL1142231, “Proline-rich tyrosine kinase 2 regulates osteoprogenitor cells and bone formation, and offers an anabolic treatment approach for osteoporosis” (Proc Natl Acad Sci U S A, 2007).

The test system of test [1] is Rattus norvegicus. In words: Effect on bone metabolism in po dosed ovariectomized Sprague-Dawley rat assessed as bone formation rate of proximal tibia cancellous bone. It is filed as functional.
For test [2], the system named is Rattus norvegicus. In words: Effect on bone turnover in po dosed ovariectomized Sprague-Dawley rat assessed as mineralizing surface of proximal tibia cancellous bone. Format: functional.
Test [3] relates to Rattus norvegicus. As to the kind of experiment: Prevention of bone loss in po dosed ovariectomized Sprague-Dawley rat assessed as osteoclast surface of proximal tibia cancellous bone. It is filed as functional.
Test [4] deals with Rattus norvegicus. As to the kind of experiment: Increase in bone formation in ovariectomized Sprague-Dawley rat assessed as mineral apposition rate of proximal tibia cancellous bone at 30 mg/kg, po administered daily for 28 days. Format: functional.
For test [5], the system named is Rattus norvegicus. In words: Effect on bone metabolism in ovariectomized Sprague-Dawley rat assessed as bone formation rate of proximal tibia cancellous bone at 30 mg/kg, po administered daily for 28 days. Format: functional.
In test [6] the test system is Rattus norvegicus. In words: Prevention of bone loss in ovariectomized Sprague-Dawley rat assessed as osteoclast surface of proximal tibia cancellous bone at 30 mg/kg, po administered daily for 28 days. Format: functional.
In test [7] the test system is Rattus norvegicus. As to the kind of experiment: Increase in bone formation in ovariectomized Sprague-Dawley rat assessed as mineral apposition rate of proximal tibia cancellous bone at 10 mg/kg, po administered daily for 28 days. Format: functional.
For test [8], the system named is Rattus norvegicus. In words: Effect on bone resorption in ovariectomized Sprague-Dawley rat assessed as serum C-telopeptide degradation product at 10 mg/kg, po administered daily for 28 days. It is filed as functional, organism-based. Details: dose 10 mg/kg.
Test [9] concerns Rattus norvegicus. In words: Prevention of bone loss in ovariectomized Sprague-Dawley rat assessed as osteoclast surface of proximal tibia cancellous bone at 10 mg/kg, po administered daily for 28 days. It is filed as functional.
Test [10] concerns Rattus norvegicus. As to the kind of experiment: Increase in bone formation in ovariectomized Sprague-Dawley rat assessed as mineralizing surface of proximal tibia cancellous bone at 30 mg/kg, po administered daily for 28 days. Format: functional.
In test [11] the test system is Rattus norvegicus. In words: Increase in bone formation in ovariectomized Sprague-Dawley rat assessed as mineralizing surface of proximal tibia cancellous bone at 10 mg/kg, po administered daily for 28 days. It is filed as functional.
Test [12] relates to Rattus norvegicus. In words: Effect on bone metabolism in ovariectomized Sprague-Dawley rat assessed as bone formation rate of proximal tibia cancellous bone at 10 mg/kg, po administered daily for 28 days. Format: functional.
In test [13] the test system is Mesenchymal stem cell. As to the kind of experiment: Increase in alkaline phosphatase activity in human mesenchymal stem cells. It is filed as functional, cell-based.
For test [14], the system named is Rattus norvegicus. In words: Effect on bone resorption in ovariectomized Sprague-Dawley rat assessed as serum C-telopeptide degradation product at 30 mg/kg, po administered daily for 28 days. Details: dose 30 mg/kg. Format: functional, organism-based.

With `C#CC1(O)CC[C@H]2[C@@H]3CCc4cc(O)ccc4[C@H]3CC[C@@]21C` (single isomer, unassigned) [ETHINYL ESTRADIOL], the values for the Activity in [1], in test [2] and in test [3] were 77.91 microm2/micrometer/d, 20.22% and 4.55%, respectively.
`CN(c1ccccc1CNc1nc(Nc2ccc3c(c2)CC(=O)N3)ncc1C(F)(F)F)S(C)(=O)=O.Cl`: the Activity was found to be 1.96 micrometer/day in test [4]; 291.43 microm2/micrometer/d in test [5]; 6.13% in test [6]; 1.77 micrometer/day in test [7]; 7.83% in [9]; 40.6% in [10]. Also, the Activity in test [11] stood at 36.81%; in [12] it was 240.17 microm2/micrometer/d. For the same compound, the outcome in [8] and in test [14] was inactive. Besides, the outcome in [13] was Active.
